Measured values reported in US20160122821A1, “GENETIC MARKERS OF ANTIPSYCHOTIC RESPONSE” (SUREGENE, LLC, priority 2013, published 2016).

How the values were obtained:
[1] = test system: Caucasian patients with schizophrenia (CATIE); assay: Genetic association (linear regression, additive model) of SNP alleles with MMRM-modelled change in PANSS Total Score under antipsychotic treatment, CATIE trial; type: in vivo, human; settings: rs1315115, located in an intron of NPAS3
Experimental: For the CATIE study, individual cases were diagnosed as having SZ based on DSM-III/IV criteria. Treatment response for all patients was assessed using the Positive and Negative Syndrome Scale (PANSS) (Kay et al., 1987; Kay et al., 1989; Leucht et al., 2005). […] To avoid possible bias in post hoc selection of a treatment response variable, the inventors used the mixed model repeated measures (MMRM) approach developed by van den Oord and coworkers (van den Oord et al., 2009). […] The design of the CATIE study, including details of consent for genetic analyses, has been described in detail by others (Lieberman et al., 2005; Stroup et al., 2003; Sullivan et al., 2008). Only retrospective genetic analyses, judged to be exempt from human studies requirements by an IRB, were conducted in the current study. Consented DNA samples were obtained from the Rutgers University Cell and DNA Repository in collaboration with […]. […] All of these patients self-reported as having exclusively European ancestry. […] Genotyping was performed on a fee for service basis according to Illumina's standard operating procedures. Raw intensity files were processed using Illumina® BeadStudio version 1.7.4 software. […] Only two of these had been previously genotyped in the CATIE sample. […] To allow comparison to previously published PGx findings for CATIE and to avoid possible bias in post-hoc selection of a treatment response variable, the inventors used the mixed model repeated measures (MMRM) approach developed by Van den Oord and coworkers (van den Oord et al., 2009; […] et al., 2011). Briefly, this method models random effects by introducing random slopes for treatment effects, allowing treatment effects to be different across subjects. The MMRM approach serves to increase the statistical power to detect genetic associations by increasing the precision in measuring change in PANSS Total Score (PANSS-T) by accounting for variance due to baseline PANSS-T, and treatment, as well as smoothing out the random fluctuations in PANSS-T between visits due to various uncontrolled variables. […] Bozeman, Mont.). Quantile-Quantile (QQ) plots were prepared using the R statistical package version 2.14.1. For comparison purposes, original CATIE-provided SNP genotypes in specific genes were evaluated using the same genetic analysis. Haplotype association integrating newly generated and original genotypes for specific regions was carried out in SVS using haplotype blocks predefined by Haploview software. […] For each of the SNPs listed the reference SNP (rs) number is provided, which provides the known sequence context for the given SNP (see, e.g., National Center for Biotechnology Information (NCBI) SNP database available on the world wide web at ncbi.nlm.nih.gov/snp).

[2] = test system: Caucasian patients with schizophrenia (CATIE); settings: SNPs in NPAS3; Lavedan et al., 2009; cited from earlier work

Row | SMILES | association of SNP with response [1] | association of SNPs with response [2]
1 | Cc1nc2n(c(=O)c1CCN1CCC(c3noc4cc(F)ccc34)CC1)CCCC2 [Risperidone, risperidone] | associated with response | –
2 | COc1cc(C(C)=O)ccc1OCCCN1CCC(c2noc3cc(F)ccc23)CC1 [iloperidone] | – | association of SNPs in NPAS3 with response
